From US20250144125A1 (priority 2021, published 2025)
Where two headings read alike, the source gives them in different places.

Experiments:
in vitro [1] = settings: African green monkey
[2] = tested on: tacaribe virus (TRVL11573 strain); assay: microbe, parasite or virus in culture; format: cell-based; settings: read-out: Tacaribe virus EC50 TRVL 11573 strain
[3] = tested on: human norovirus genogroup I NoV (Norwalk virus replicon) in HG23 cells; assay: Human norovirus antiviral assay, qRT PCR in HG23 NoV replicon cells; format: cell-based; settings: for EC50: Norwalk virus
[4] = tested on: chikungunya virus (S27 strain); assay: microbe, parasite or virus in culture; format: cell-based
[5] = tested on: influenza A (H1N1) virus (California/07/2009 strain); assay: microbe, parasite or virus in culture; format: cell-based; settings: for EC50: read-out: EC50 California/07/2009 strain
[6] = tested on: measles virus (CC strain); assay: microbe, parasite or virus in culture; format: cell-based
in vitro [7] = settings: dog, CC50 MDCK
in vitro [8] = settings: African green monkey, Tacaribe virus CC50 Vero
[9] = tested on: dengue virus 2 (New Guinea C strain); assay: microbe, parasite or virus in culture; format: cell-based
MERS-CoV (EMC strain) = assay: microbe, parasite or virus in culture; format: cell-based
[10] = Cytotoxicity in the human norovirus replicon assay (HG23 cells); settings: human, HG23 Nov replicon cells
[11] = tested on: enterovirus-71 (Tainan/4643/98 strain); assay: organism not typed; format: cell-based
Vero cells = settings: African green monkey
in vitro [12] = settings: human
[13] = tested on: yellow fever virus (YFV 17D strain); assay: microbe, parasite or virus in culture; format: cell-based
[14] = tested on: enterovirus-71 (Tainan/4643/98 strain); assay: Secondary assay (virus yield reduction / neutral red CPE) against enterovirus-71 in Vero 76 cells; format: cell-based; settings: for EC50: Vero 76, Neutral Red (Cytopathic effect/Toxicity); for EC90: Vero 76, Visual (Virus yield reduction)
MDCK cells = settings: dog
[15] = Mammarenavirus tacaribeense, Vero
[16] = HG23 Nov replicon cells, qRT PCR intracellular RNA, read-out: EC50 human norovirus
[17] = Chikungunya virus, Vero 76, read-out: EC50 chikungunya virus
[18] = read-out: MERS-CoV CC50 Vero 76, Neutral Red, MERS-CoV screen
[19] = read-out: Yellow fever virus CC50 Huh7, Neutral Red, YFV screen
[20] = read-out: Yellow fever virus CC50 Huh7, Visual, YFV screen
[21] = Measles morbillivirus, Vero 76, read-out: Measles EC50 CC strain
[22] = read-out: Measles EC50 CC strain
[23] = Dengue virus, Huh-7, read-out: EC50 dengue virus 2
[24] = Middle East respiratory syndrome-related coronavirus, Vero 76, read-out: MERS-CoV EC50 EMC strain
[25] = read-out: MERS-CoV EC50 EMC strain
[26] = Vero 76, read-out: EC50 enterovirus-71
[27] = Yellow fever virus, Huh-7, read-out: Yellow fever virus EC50 YFV 17D strain
[28] = read-out: Yellow fever virus EC50 YFV 17D strain

| Compound | CC50 (in vitro [1]; MERS-CoV CC50 Vero 76) | CC50 (in vitro [1]; Measles CC50 Vero 76) | EC50 [2, 15] | EC50 [3, 16] | EC50 [4, 17] | CC50 (Vero 76 cells; [18]) | CC50 (Huh7 cells; [19]) | EC50 ([5]; Influenza A virus, H1N1, MDCK) | EC50 [6, 21] | EC50 [6, 22] | CC50 (in vitro [8]) | EC50 [9, 23] | EC50 ([9]; read-out: EC50 dengue virus 2) | EC50 (MERS-CoV (EMC strain); [24]) | CC50 at 3 days [10] | EC50 [11, 26] | EC50 [2] | CC50 (Vero cells) | CC50 (in vitro [12]; Yellow fever virus CC50 Huh7) | EC50 [13, 27] | further results |
| --- | --- | --- | --- | --- | --- | --- | --- | --- | --- | --- | --- | --- | --- | --- | --- | --- | --- | --- | --- | --- | --- |
| CCc1ncnc2c1c(C#CC1CC1)cn2[C@@H]1O[C@H](CO)[C@@H](O)[C@H]1O [3.1n, 6-Ethyl-7-cyclopropylethynyl-9-β-D-ribofuranosyl-7-deazapurine] | 100 µM | > 100 µM | > 100 µM | 0.062 µM | > 100 µM | > 100 µM | 21 µM | > 100 µM | 64 µM | 33 µM | > 100 µM | 13 µM | > 8.3 µM | 10 µM | 0.342 µM | > 100 µM |  |  |  |  | CC50 (in vitro [1]; CC50): > 100 µM; activity against human norovirus in words [3]: no promising activity; CC50 (Huh7 cells; [20]): 100 µM; CC50 (in vitro [7]): > 100 µM; activity against MERS-CoV in words (MERS-CoV (EMC strain)): moderately active with low selectivity index; EC50 (MERS-CoV (EMC strain); [25]): 5.7 µM |
| OC[C@H]1O[C@@H](n2ccc3c(C#Cc4ccc(F)cc4)ncnc32)[C@H](O)[C@@H]1O [3.1h, 6-((4-Fluorophenyl)ethynyl)-9-β-D-ribofuranosyl-7-deazapurine] | 32 µM | 28 µM | 24 µM | < 0.001 µM | > 36 µM | 29 µM | 30 µM |  | 6.2 µM | 7.1 µM | 24 µM | > 32 µM | > 29 µM | > 32 µM | 38.5 µM | > 39 µM | > 23 µM | 23 µM | 32 µM | 2.2 µM | CC50 (in vitro [1]; CC50): 36 µM; activity against human norovirus in words [3]: low nanomolar activity and high selectivity; EC50 ([4]; read-out: EC50 chikungunya virus): 32 µM; EC50 [13, 28]: 2.3 µM; EC50 (MERS-CoV (EMC strain); [25]): > 29 µM; EC50 ([11]; read-out: EC50 enterovirus-71): > 46 µM |
| OC[C@H]1O[C@@H](n2ccc3c(C4CC4)ncnc32)[C@H](O)[C@@H]1O [3.1a, 6-Cyclopropyl-9-β-D-ribofuranosyl-7-deazapurine, reference compound] | > 100 µM | 100 µM | 100 µM | 2.52 µM | > 100 µM | > 100 µM | > 100 µM | > 100 µM | 63 µM | 56 µM | 100 µM | 32 µM | 45 µM | > 100 µM | > 100 µM | > 100 µM | > 100 µM | > 100 µM | 100 µM | > 100 µM | activity against chikungunya virus in words [4]: inactive; CC50 (Vero 76 cells; African green monkey): > 100 µM; activity against influenza A (H1N1) in words [5]: not active; CC50 (in vitro [7]): > 100 µM; CC50 (in vitro [12]; CC50): > 100 µM |
| CC(C)C#Cc1ncnc2c1ccn2[C@@H]1O[C@H](CO)[C@@H](O)[C@H]1O [3.1e, 6-(3-Methylbut-1-yn-1-yl)-9-β-D-ribofuranosyl-7-deazapurine] | > 100 µM | 34 µM | 1.3 µM | 0.396 µM | > 100 µM | > 100 µM |  | 3.2 µM | 3.2 µM | 2.4 µM | 10 µM | 3.2 µM | 1.8 µM | 11 µM | 39.5 µM | 4.2 µM | 1 µM | 7.3 µM | 28 µM | 9.2 µM | CC50 (Huh7 cells; human): 21 µM; EC50 [5]: 3 µM; EC50 [14]: 4 µM; EC90 [14]: 4.6 µM; CC50 (in vitro [12]; CC50): 24 µM; EC50 (MERS-CoV (EMC strain); [25]): 14 µM; EC50 ([11]; read-out: EC50 enterovirus-71): 4.3 µM |
| CC#Cc1ncnc2c1ccn2[C@@H]1O[C@H](CO)[C@@H](O)[C@H]1O [3.1d, 6-(Prop-1-yn-1-yl)-9-β-D-ribofuranosyl-7-deazapurine] | 3.2 µM | 3.6 µM | 3.2 µM | 0.006 µM |  | 3.3 µM | 1.8 µM | 3.2 µM | > 3.6 µM | > 3.4 µM | 5.2 µM | 0.32 µM | 0.37 µM |  | 17.4 µM |  | 2.2 µM | 4.2 µM |  | 2.9 µM | activity against human norovirus in words [3]: low nanomolar activity and high selectivity; CC50 (Vero 76 cells; African green monkey): 3.4 µM; CC50 (Huh7 cells; human): 3.7 µM; CC50 (Huh7 cells; [20]): 12 µM; EC50 [5]: 2.9 µM; CC50 (MDCK cells): 4.9 µM; CC50 (in vitro [7]): 6.1 µM; CC50 (in vitro [12]; CC50): 3.6 µM; EC50 [13, 28]: > 1.8 µM |
| C=C(OCC)c1ncnc2c1ccn2[C@@H]1O[C@H](CO)[C@@H](O)[C@H]1O [3.1b, 6-(1-Ethoxyvinyl)-9-β-D-ribofuranosyl-7-deazapurine] | 52 µM | > 100 µM | 44 µM |  |  | 86 µM | 22 µM |  | > 100 µM | 64 µM | 100 µM |  |  |  | 60.5 µM | > 84 µM | 39 µM | 99 µM | 28 µM | > 28 µM | EC50 ([3]; HG23, read-out: EC50 human norovirus): 0.007 µM; CC50 (Vero 76 cells; African green monkey): 100 µM; CC50 (Huh7 cells; human): 8.6 µM; CC50 (in vitro [12]; CC50): 8.5 µM; EC50 [13, 28]: > 22 µM; activity against MERS-CoV in words (MERS-CoV (EMC strain)): moderately active with low selectivity index; EC50 ([11]; read-out: EC50 enterovirus-71): 90 µM |
| CCOC(=O)c1ccc(OCCC2CCN(c3ccc(C)nn3)CC2)cc1 [Pirodavir, pirodavir, reference compound] |  |  |  |  |  |  |  |  |  |  |  |  |  |  |  | 0.4 µM |  |  |  |  | CC50 (in vitro [1]; CC50): > 27 µM; EC50 [14]: 0.35 µM; EC90 [14]: 0.46 µM; EC50 ([11]; read-out: EC50 enterovirus-71): 0.27 µM |
